One may read the fraction unbound as free concentration divided by total concentration. Lower therefore signals little free substance.

The results in this text go back to publication PMC9400670, “Establishing the selective phospholipid membrane coordination, permeation and lysis properties for a series of ‘druggable’ supramolecular self-associating antimicrobial amphiphiles” (Chemical Science, 2022).

The data set is described as follows: Mouse plasma protein binding (rapid equilibrium dialysis) with plasma stability. The format is in vitro ADME. The following applies: for recovery at 4 h, 2 µM: mouse plasma, read-out: Recovery (PPB assay); for fraction unbound at 4 h, 2 µM: PPB. How it is done: page 7: Section 4: DMPK Methods and Further Discussion Materials used for DMPK studies: Sprague Dawley rat liver microsomes (male, 771 donors, Lot 1910100), CD-1 mouse liver microsomes (male, 6424 donors, Lot 2010017) and human liver microsomes (mixed gender,50 donors, Lot 1810003) were purchased from Sekisui Xenotech (Kansas City, USA). Microsomal incubations: SSA 1-6 and 10 (final concentration 1 µM) were pre-incubated for 10 min in mouse, rat, or human liver microsomes (final concentration 0.5 mg/mL prepared in 100 mM potassium phosphate buffered saline (PBS)) at 37°C. The reaction was initiated with the addition of the cofactor, NADPH-generating system. The NADPH-generating system consisted of NADP (1.3 mM, pH 7.4), glucose-6-phosphate (3.3 mM, pH 7.4), glucose-6-phosphate dehydrogenase (0.4 unit/mL) and MgCl2 (3.3 mM). The reaction was allowed to proceed for 45 min. At 0, 5, 10, 15, 30, and 45 min aliquots were sampled and quenched in ice cold acetonitrile with internal standard. Incubations were conducted in singlicate; control incubations (substituting PBS for NADPH) were conducted simultaneously. All control incubations were within acceptance criteria in mouse, rat, and human microsomes confirming stability was acceptable over 45 minutes in the absence of co-factor. Protein Binding studies: The fraction unbound in mouse plasma (BioIVT, Frankfurt Am Main, Germany) of SSA 1-6 and 10 were measured using a Rapid Equilibrium Dialysis device (Thermo Fisher Scientific, Loughborough, UK). Mouse plasma containing 2 µM of SSA 1-6 and 10 were dialysed against 100 mM PBS for 4h at 37°C at 5% CO2. Samples were removed, matrix matched and quenched with acetonitrile containing internal standard; further processing is described in: Sample preparation and liquid chromatography-mass spectrometry analysis. Caco-2 Permeability studies: The permeability assay for SSA 1-6 and 10 was performed at Cyprotex Discovery Limited (Macclesfield, UK) and analysed at Cancer Research Horizons. SSA 1-6 and 10 were incubated at a final concentration of 10 uM with human intestinal Caco-2 cells at 37°C, 5% CO2 with a relative humidity of 95%. After 120 minutes the apical compartment inserts and the companion plates were separated, and the apical and basolateral samples were transferred. Incubations were conducted in duplicate and the fluorescent membrane integrity marker; Lucifer Yellow was co- incubated with the SSA compounds at the start of the assay. Compounds of known permeability were used as controls and were within acceptance criteria. Further processing is described in: Sample preparation and liquid chromatography-mass spectrometry analysis. Sample preparation and liquid chromatography-mass spectrometry analysis: All samples were centrifuged at 3500 rpm at 4°C for 10 min to precipitate protein and enable sampling of supernatant prior to appropriate dilution for liquid chromatography-mass spectrometry (LC-MS/MS analysis). For the purpose of CLINT determination, samples were analysed using a Waters I-Class ultra-high- performance liquid chromatography (UHPLC) system coupled to a Waters Xevo TQ-XS mass spectrometer (Waters, Elstree, UK). Separation of analytes was achieved using an Accucore Vanquish C18+ column (1.5 µm, 50 x 2.1 mm) (Thermo Fisher Scientific, Hemel Hempstead) at a temperature of 40°C and a binary mobile phase gradient at a flow rate of 0.4 mL/min. Initial LC conditions comprised 95% solvent A (0.1% formic acid + 5 mM ammonium acetate in water), 5% solvent B (0.1% formic acid + 5 mM ammonium acetate in acetonitrile); this was ramped to 90% B at 5 min, and then immediately returned to initial conditions and held for the remaining 0.5 min of the method. Sample analysis was by electrospray ionisation combined with multiple reaction monitoring in negative ion mode. […]
In general terms: In equilibrium dialysis only unbound substance equilibrates across the membrane.

Setting [1] is: mouse, % SSA recovered from the assay after 4 hours.

`O=C(NCS(=O)(=O)O)Nc1ccc(C(F)(F)F)cc1` [SSA 3]: under “% SSA recovered from the assay after 4 hours”, the “Recovery (PPB assay)” value is given as 80%. For the setting “mouse, 4 h, 2 µM”, this compound displayed a Plasma stability of 89%. The PPB (mouse, plasma, 4 h, 2 µM) is 73.8%.

`O=C(O)CNC(=O)Nc1ccc(C(F)(F)F)cc1` [SSA 4]: where the note is “mouse, 4 h, 2 µM”, the Plasma stability is 96%. Further, under setting [1], the recovery at 4 h, 2 µM turned out to be 86%. For the same compound, for the setting “mouse, plasma”, the PPB class entry is given as “low” and the fraction unbound at 4 h, 2 µM is 0.328.

In turn, `O=C(NCS(=O)(=O)O)Nc1ccccc1-c1nc2ccccc2s1` [SSA 5] registered a Plasma stability (mouse, 4 h, 2 µM) of 92%. Under setting [1], the recovery at 4 h, 2 µM was 109%. Moreover, for the setting “mouse, plasma”, the PPB class result is given as “very high” and the unbound share (fraction unbound) at 4 h, 2 µM is < 0.003.

On to `O=C(NCS(=O)(=O)O)Nc1ccc(C(F)(F)F)cc1` [SSA 1], for which the Plasma stability (mouse, 4 h, 2 µM) turned out to be 94%. Also, the recovery at 4 h, 2 µM under setting [1] is 91%. Besides, where the note is “mouse, plasma”, the PPB class entry is reported as “low” and the unbound share (fraction unbound) at 4 h, 2 µM is 0.25.

`Cc1ccc2nc(-c3ccc(NC(=O)NCS(=O)(=O)O)cc3)sc2c1` [SSA 6] registered a Plasma stability (mouse, 4 h, 2 µM) of 90%. For the same compound, under setting [1], the recovery at 4 h, 2 µM turned out to be 101%. Moreover, under “mouse, plasma”, the PPB class result is recorded as “very high” and the fraction unbound at 4 h, 2 µM is 0.007.

The compound `Cc1ccc2nc(-c3ccc(NC(=O)NCCCS(=O)(=O)O)cc3)sc2c1` [SSA 10] gave a Plasma stability (mouse, 4 h, 2 µM) of 89%. Moreover, under setting [1], the recovery at 4 h, 2 µM was 94%. Under “mouse, plasma”, the PPB class entry was “very high” and the fraction unbound at 4 h, 2 µM is 0.007.

The compound `O=C(NCCCS(=O)(=O)O)Nc1ccc(C(F)(F)F)cc1` [SSA 2] showed a Plasma stability (mouse, 4 h, 2 µM) of 93%. In addition, the recovery at 4 h, 2 µM under setting [1] is 79%. For the same compound, the fraction unbound at 4 h, 2 µM (mouse, plasma) was 0.166.
